Test results reported in patent US20250179114A1, “Anti-Inflammatory Compound and Use Thereof” (DUALITY BIOLOGICS (SUZHOU) CO., LTD., priority 2021, published 2025).

Assays:
Assay type in all cases: cell-based
[1] = tested on: TNF-α secretion from PBMC under R848 stimulation; experiment: R848-induced release of TNFα from human peripheral blood monocytes (PBMC); design: unit not given here; settings: R848 5 μM, 24 h, ELISA
Protocol: (§1) Example 4: Inhibitory Effect of Compounds of the Present Invention on R848-Induced Release of IFNα and TNFα from Human Peripheral Blood Monocytes
(§2) The compounds of the present application were detected for their inhibitory effect on the production of peripheral blood monocytes. The peripheral blood monocytes were treated in vitro with the ligand-drug conjugates at different concentrations, and IFNα and TNFα produced by the peripheral blood monocytes were quantitatively detected after a certain time. The compounds of the present invention were evaluated for in-vitro activity.
(§3) The cryopreserved human PBMC cells were resuspended in a complete medium and counted, and the cell suspension was adjusted to 2.5×10^6 cells/mL with the culture medium. After the suspension was centrifuged to collect the cells the next day, the cells were resuspended using fresh culture medium. Test compounds were diluted to 4-fold final concentration in cell culture medium, 50 μL of the compounds were added into a 96-well cell plate, and 100 μL of diluted cells (800,000 cells/well) were added into each well of the 96-well plate containing the compounds, followed by addition of 50 μL R848 to a final concentration of 5 μM. The cell plate was incubated at 37° C. with 5% CO2 for 24 h. The supernatant was collected, and the TNF-α and IFN-α concentration levels in the supernatant were detected using an ELISA kit. TNF-α concentration assay was performed using Dakewe TNF-α ELISA kit (Cat #1117202), 100 μL of the serially-diluted cytokine standard was added into each well, 100 μL of the above supernatant diluted 10-fold was added into each well, and 100 μL of 1× dilution buffer R was added into each blank control well. 50 μL of biotinylated antibody working solution was added into each well. After mixing well, the plate was covered with a plate-sealing membrane and incubated at room temperature for 3 h. The plate was washed for 3 times: the liquid in each well was discarded, and 300 μL of 1× washing buffer working solution was added into each well; after 1 minute of residence, the liquid in the wells was discarded. The procedure was repeated for 3 times. 100 μL of Streptavidin-HRP working solution was added into each well. The plate was covered with the plate-sealing membrane and incubated at room temperature for 20 min. The plate was washed for 3 times, 100 μL of TMB liquid was added into each well, and the plate was incubated at room temperature (18-25° C.) in the dark for 25 min. The reaction was stopped by adding 100 μL stop solution rapidly to each well. The reading at a wavelength of 450 nm was detected by an M2e instrument within 10 min after termination.
The contents of TNF-α and IFN-α were calculated from the OD450 values (Mean±standard deviation).

[2] = tested on: IFN-α secretion from PBMC under R848 stimulation; experiment: R848-induced release of IFNα from human peripheral blood monocytes (PBMC); design: unit not given here; settings: R848 5 μM, 24 h, ELISA
Protocol: as §1, §2, §3
IFN-α concentration assay was performed using Dakewe IFN-α ELISA kit (Cat #1110012), 100 μL of the serially-diluted cytokine standard was added into each well, 100 μL of the above supernatant diluted 2-fold was added into each well, and 100 μL of 1× dilution buffer R was added into each blank control well. 50 μL of biotinylated antibody working solution was added into each well. After mixing well, the plate was covered with a plate-sealing membrane and incubated at room temperature for 3 h. The plate was washed for 3 times: the liquid in each well was discarded, and 300 μL of 1× washing buffer working solution was added into each well; after 1 minute of residence, the liquid in the wells was discarded. The procedure was repeated for 3 times. 100 μL of Streptavidin-HRP working solution was added into each well. The plate was covered with the plate-sealing membrane and incubated at room temperature for 20 min. The plate was washed for 3 times, 100 μL of TMB liquid was added into each well, and the plate was incubated at room temperature (18-25° C.) in the dark for 25 min. The reaction was stopped by adding 100 μL stop solution rapidly to each well. The reading at a wavelength of 450 nm was detected by an M2e instrument within 10 min after termination. […]

glucocorticoid receptor = target: T1, glucocorticoid receptor (Homo sapiens, UniProt P04150); experiment: Activity assay of glucocorticoid receptor reporter gene GRE; settings: HEK293 cells transfected with pGL5 and pBIND-GR; 24 h; Dual-Glo luciferase
T1 construct: host or cells: HEK293
T1 sequence (P04150 1-777): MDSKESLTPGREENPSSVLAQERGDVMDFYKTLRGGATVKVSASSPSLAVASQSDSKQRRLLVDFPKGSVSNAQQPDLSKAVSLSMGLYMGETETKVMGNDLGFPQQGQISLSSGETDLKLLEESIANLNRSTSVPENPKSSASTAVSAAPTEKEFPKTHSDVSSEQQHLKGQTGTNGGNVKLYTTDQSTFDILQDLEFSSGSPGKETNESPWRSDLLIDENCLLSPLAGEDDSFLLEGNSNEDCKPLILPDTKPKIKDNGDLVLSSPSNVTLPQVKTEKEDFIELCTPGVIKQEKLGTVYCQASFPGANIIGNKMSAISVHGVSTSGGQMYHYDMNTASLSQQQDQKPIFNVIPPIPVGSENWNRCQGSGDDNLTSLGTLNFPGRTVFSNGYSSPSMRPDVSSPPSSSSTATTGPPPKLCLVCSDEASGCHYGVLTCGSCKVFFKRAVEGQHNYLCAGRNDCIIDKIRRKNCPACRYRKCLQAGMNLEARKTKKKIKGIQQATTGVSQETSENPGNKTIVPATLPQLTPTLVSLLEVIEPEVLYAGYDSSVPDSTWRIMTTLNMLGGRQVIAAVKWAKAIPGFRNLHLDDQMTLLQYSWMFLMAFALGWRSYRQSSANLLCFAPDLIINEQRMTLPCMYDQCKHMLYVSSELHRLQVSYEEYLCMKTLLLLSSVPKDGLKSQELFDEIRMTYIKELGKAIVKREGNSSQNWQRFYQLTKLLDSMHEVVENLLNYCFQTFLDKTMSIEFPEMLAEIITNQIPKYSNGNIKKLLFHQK
Protocol: HEK293 cells were cultured in DMEM+10% FBS medium in a carbon dioxide incubator humidified at 37° C. with 5% carbon dioxide.
HEK293 cells were digested with trypsin, and the HEK293 cell resuspension was adjusted to 200,000 cell/mL in medium (96 well plate: 100 μL/well).
Transfection reagent mixtures were prepared according to Tables 5a and 5b below, mixed well and left to stand at room temperature for 20 min.
The prepared transfection mixtures were added to 10 mL of the cell density-adjusted resuspension, mixed well by turning the mixtures upside down, and seeded into a 96-well plate at a volume of 100 μL/well.
The 96-well plate was incubated in a humidified incubator at 37° C. with 5% carbon dioxide for 24 h.
The test plate was placed back into the incubator and incubated for 24 h.
The test plate was detected using the Dual-Glo Luciferase Assay System kit from Promega, and the fluorescence signal of Firefly Luciferase and the fluorescence signal of Renilla Luciferase were read using Enspire, respectively.
The final measurement value was a normalized value “F/R” obtained by dividing the Firefly Luciferase fluorescent signal by the Renilla Luciferase fluorescent signal.
The data were copied and pasted into Excel, and the activation rate was obtained through an equation.
The data were imported into MS Excel and subjected to curve fitting by using XLFit excel add-in version 5.4.0.8 to obtain an EC50 value.
Y is the agonism and X is the concentration of the compound.

| SMILES | TNF-α content in supernatant (Mean±standard deviation) ([1]; compound 4 nM) | TNF-α content in supernatant (Mean±standard deviation) ([1]; compound 20 nM) | TNF-α content in supernatant (Mean±standard deviation) ([1]; compound 100 nM) | IFN-α content in supernatant (Mean±standard deviation) ([2]; compound 4 nM) | IFN-α content in supernatant (Mean±standard deviation) ([2]; compound 20 nM) | IFN-α content in supernatant (Mean±standard deviation) ([2]; compound 100 nM) | EC50 (glucocorticoid receptor) |
| --- | --- | --- | --- | --- | --- | --- | --- |
| C[C@]12C=CC(=O)C=C1CC[C@@H]1[C@@H]2[C@@H](O)C[C@@]2(C)[C@H]1C[C@H]1O[C@@H](c3ccn(Cc4cccc(N)c4)c3)O[C@]12C(=O)CO [Compound 1] | 1187.6 ± 87.4 | 611.9 ± 10.7 | 592.8 ± 92.1 | 228.3 ± 0.2 | 0 ± 0 | 0 ± 0 | – |
| C[C@]12C=CC(=O)C=C1CC[C@@H]1[C@@H]2[C@@H](O)C[C@@]2(C)[C@H]1C[C@H]1O[C@@H](c3ccn(Cc4ccc(N)cc4)c3)O[C@]12C(=O)CO [Compound 2] | 898.3 ± 27.7 | 584.4 ± 171.1 | 623.3 ± 238.4 | 108 ± 11 | 11.1 ± 11.1 | 0 ± 0 | 0.15 nM |
